IC50 data for ten compounds are collected here from patent US12371428B2 (Exelixis, Inc., priority 2019, dated 2025).

The target of assay [1] is KDR (phospho-KDR, VEGF165-stimulated HUVEC cells) (Homo sapiens (Human), UniProt P35968). Briefly: KDR autophosphorylation ELISA in HUVEC cells (Example G). The format is cell-based. The note with it: cellular activity; KDR autophosphorylation ELISA in HUVEC cells. The method in brief: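 IC50 values derive from nonlinear curve fitting of phospho-KDR levels measured by ELISA and interpolated from a phosphoprotein standard. Beforehand, starved HUVECs received compound (0.3% DMSO vehicle) for one hour and were activated with VEGF165 at 100 ng/mL for 5 min.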
Chain of KDR (phospho-KDR, VEGF165-stimulated HUVEC cells) (P35968 20-1356): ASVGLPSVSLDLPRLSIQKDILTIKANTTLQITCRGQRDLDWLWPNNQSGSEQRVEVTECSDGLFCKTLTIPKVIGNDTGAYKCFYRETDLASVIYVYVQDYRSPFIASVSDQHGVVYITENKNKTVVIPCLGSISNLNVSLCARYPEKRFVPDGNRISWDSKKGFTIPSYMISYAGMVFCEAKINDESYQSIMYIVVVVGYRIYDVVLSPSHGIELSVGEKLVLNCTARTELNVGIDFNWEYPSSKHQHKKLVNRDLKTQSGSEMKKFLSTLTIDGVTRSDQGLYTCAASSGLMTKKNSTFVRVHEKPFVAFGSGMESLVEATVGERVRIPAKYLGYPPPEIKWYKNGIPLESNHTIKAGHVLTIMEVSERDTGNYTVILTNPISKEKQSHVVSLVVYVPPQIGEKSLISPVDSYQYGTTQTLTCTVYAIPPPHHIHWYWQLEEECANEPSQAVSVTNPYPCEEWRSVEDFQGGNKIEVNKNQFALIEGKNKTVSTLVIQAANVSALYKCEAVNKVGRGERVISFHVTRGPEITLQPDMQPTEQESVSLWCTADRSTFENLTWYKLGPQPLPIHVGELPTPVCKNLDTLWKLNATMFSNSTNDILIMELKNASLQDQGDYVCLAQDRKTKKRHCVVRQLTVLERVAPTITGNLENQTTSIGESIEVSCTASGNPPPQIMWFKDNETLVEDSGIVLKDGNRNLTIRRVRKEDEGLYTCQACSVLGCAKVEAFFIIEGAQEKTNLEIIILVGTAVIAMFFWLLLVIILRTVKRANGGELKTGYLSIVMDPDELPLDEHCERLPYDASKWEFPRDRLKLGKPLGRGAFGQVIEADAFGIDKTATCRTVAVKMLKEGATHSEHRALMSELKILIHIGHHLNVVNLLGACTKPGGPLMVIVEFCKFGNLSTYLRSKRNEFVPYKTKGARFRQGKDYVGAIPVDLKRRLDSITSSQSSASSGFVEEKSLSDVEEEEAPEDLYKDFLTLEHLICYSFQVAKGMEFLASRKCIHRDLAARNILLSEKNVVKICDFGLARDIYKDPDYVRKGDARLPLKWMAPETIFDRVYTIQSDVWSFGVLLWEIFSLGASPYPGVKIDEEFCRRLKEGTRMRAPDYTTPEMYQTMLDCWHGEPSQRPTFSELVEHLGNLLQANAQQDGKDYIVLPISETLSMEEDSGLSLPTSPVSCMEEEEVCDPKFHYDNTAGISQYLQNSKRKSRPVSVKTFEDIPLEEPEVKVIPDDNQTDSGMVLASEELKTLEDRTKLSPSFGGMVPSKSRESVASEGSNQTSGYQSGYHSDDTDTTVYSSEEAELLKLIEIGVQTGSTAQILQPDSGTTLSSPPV

The target of assay [2] is Human MET (residues 956-1390) (Homo sapiens (Human), UniProt P08581). Briefly: Human Met kinase assay, HTRF KinEase (Example D-2). The format is biochemical. Particulars: protocol of Example D-2 (other compounds); read-out: c-Met IC50. The method, boiled down: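 IC50 values come from a 4-parameter logistic fit of the […] fluorescence ratio, set between DMSO (100%) and reference compound at 1 μM (0%). Reactions held MET 956-1390 at 0.1 ng/well, ATP at Km, biotinylated peptide, 5 mM MgCl2, 1 mM MnCl2, 1 mM DTT and 3% DMSO, and ran 40 min at room temperature before streptavidin-XL665/Eu-antibody detection.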
Chain of Human MET (residues 956-1390) (P08581 956-1390): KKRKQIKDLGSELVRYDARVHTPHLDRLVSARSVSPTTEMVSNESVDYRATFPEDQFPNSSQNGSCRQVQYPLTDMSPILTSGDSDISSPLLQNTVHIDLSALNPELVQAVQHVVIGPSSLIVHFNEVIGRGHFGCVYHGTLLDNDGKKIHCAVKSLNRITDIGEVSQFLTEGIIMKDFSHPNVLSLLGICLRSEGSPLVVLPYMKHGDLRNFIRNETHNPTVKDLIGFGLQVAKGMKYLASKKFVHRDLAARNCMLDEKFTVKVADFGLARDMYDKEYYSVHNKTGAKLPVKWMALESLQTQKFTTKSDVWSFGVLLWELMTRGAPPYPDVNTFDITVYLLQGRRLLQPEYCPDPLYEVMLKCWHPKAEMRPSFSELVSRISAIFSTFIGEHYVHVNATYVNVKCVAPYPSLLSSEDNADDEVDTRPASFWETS
In general terms: Time-resolved FRET reads energy transfer from a long-lived donor to a nearby acceptor.

Take `COc1cc2nccc(Oc3ccc(NC(=O)c4cn(C5CC5)c(C)c(-c5ccc(F)cc5)c4=O)cc3)c2nc1OC` [Compound 434, 1-cyclopropyl-N-[4-[(6,7-dimethoxy-1,5-naphthyridin-4-yl)oxy]phenyl]-5-(4-fluorophenyl)-6-methyl-4-oxopyridine-3-carboxamide]: the IC50 (as a rule, the point on the concentration scale where inhibition reaches its midpoint) is greater than 0.3 µM in assay [1] and less than 0.1 µM in assay [2].
Taken in the same sequence, the figures for `COc1ccc2nccc(Oc3ccc(NC(=O)c4cn(C5CC5)c(C)c(-c5ccc(F)cc5)c4=O)cc3F)c2n1` [Compound 435, 1-cyclopropyl-N-[3-fluoro-4-[(6-methoxy-1,5-naphthyridin-4-yl)oxy]phenyl]-5-(4-fluorophenyl)-6-methyl-4-oxopyridine-3-carboxamide] were greater than 0.3 µM and less than 0.1 µM.
Turning to `COCCOc1nc2c(Oc3ccc(NC(=O)c4cnc(C)c(-c5ccc(F)cc5)c4O)cc3F)ccnc2cc1C` [Compound 436, N-[3-fluoro-4-[[6-(2-methoxyethoxy)-7-methyl-1,5-naphthyridin-4-yl]oxy]phenyl]-5-(4-fluorophenyl)-4-hydroxy-6-methylpyridine-3-carboxamide], the half-maximal inhibitory concentration (IC50) in assay [1] and in assay [2] was less than 0.1 µM in each case.
`COCCOc1nc2c(Oc3ccc(NC(=O)c4cnc(C)c(-c5ccc(F)cc5)c4O)cc3)ccnc2cc1C` [Compound 437, 5-(4-fluorophenyl)-4-hydroxy-N-[4-[[6-(2-methoxyethoxy)-7-methyl-1,5-naphthyridin-4-yl]oxy]phenyl]-6-methylpyridine-3-carboxamide]: the IC50 in assay [1] and in assay [2] was less than 0.1 µM in each case.
For `Cc1cc2nccc(Oc3ccc(NC(=O)c4cnc(C)c(-c5ccc(F)cc5)c4O)cc3F)c2nc1OCCCN1CCOCC1` [Compound 438, N-[3-fluoro-4-[[7-methyl-6-(3-morpholin-4-ylpropoxy)-1,5-naphthyridin-4-yl]oxy]phenyl]-5-(4-fluorophenyl)-4-hydroxy-6-methylpyridine-3-carboxamide], the IC50 in assay [1] and in assay [2] was less than 0.1 µM in each case.
As to `COc1cc2nccc(Oc3ccc(NC(=O)c4cn(C5CC5)c(C)c(-c5ccc(F)cc5C)c4=O)cc3F)c2nc1OC` [Compound 439, 1-cyclopropyl-N-[4-[(6,7-dimethoxy-1,5-naphthyridin-4-yl)oxy]-3-fluorophenyl]-5-(4-fluoro-2-methylphenyl)-6-methyl-4-oxopyridine-3-carboxamide], the concentration for half-maximal inhibition (IC50) was greater than 0.3 µM in assay [1] and 0.1 to 0.3 µM in assay [2].
As to `COc1cc2nccc(Oc3ccc(NC(=O)c4cn(C5CC5)c(C)c(-c5ccc(F)cc5C)c4=O)cc3)c2nc1OC` [Compound 440, 1-cyclopropyl-N-[4-[(6,7-dimethoxy-1,5-naphthyridin-4-yl)oxy]phenyl]-5-(4-fluoro-2-methylphenyl)-6-methyl-4-oxopyridine-3-carboxamide], the 50% inhibitory concentration (IC50) in assay [1] was greater than 0.3 µM; in assay [2], less than 0.1 µM.
With `COc1ccc2nccc(Oc3ccc(NC(=O)c4cn(C5CC5)c(C)c(-c5ccc(F)cc5C)c4=O)cc3F)c2n1` [Compound 441, 1-cyclopropyl-N-[3-fluoro-4-[(6-methoxy-1,5-naphthyridin-4-yl)oxy]phenyl]-5-(4-fluoro-2-methylphenyl)-6-methyl-4-oxopyridine-3-carboxamide], the IC50 was greater than 0.3 µM in assay [1] and 0.1 to 0.3 µM in assay [2].
Consider `COc1cc2nccc(Oc3ccc(NC(=O)c4c(C)nc(OC)c(-c5ccc(F)cc5)c4O)cc3F)c2nc1OC` [Compound 442, N-[4-[(6,7-dimethoxy-1,5-naphthyridin-4-yl)oxy]-3-fluorophenyl]-5-(4-fluorophenyl)-4-hydroxy-6-methoxy-2-methylpyridine-3-carboxamide], for which the 50% inhibitory concentration (IC50) in assay [1] and in assay [2] was less than 0.1 µM each time.
Take `COc1cc2nccc(Oc3ccc(NC(=O)c4c(C)nc(O)c(-c5ccc(F)cc5)c4O)cc3F)c2nc1OC` [Compound 443, N-[4-[(6,7-dimethoxy-1,5-naphthyridin-4-yl)oxy]-3-fluorophenyl]-5-(4-fluorophenyl)-4,6-dihydroxy-2-methylpyridine-3-carboxamide]: the IC50 in assay [1] is greater than 0.3 µM; in assay [2], less than 0.1 µM.
